According to PMC11508649 (International Journal of Molecular Sciences, 2024):
Counter-ions that a name gives are not always drawn. Like-named read-outs stand apart in the source and are kept apart here. Marks after values point to notes of the source that are not given here.

Key:
[1] = biological target: T1, human serotonin transporter (Homo sapiens, UniProt P31645); experiment: Serotonin transporter radioligand binding ([3H]-imipramine, HEK-293 membranes)
T1 construct: purchased PerkinElmer; host or cells: HEK-293
Protocol: (§1) Each compound was tested in 6 concentrations from 10–5 to 10–10 M (final concentration).
(§2) All assays were carried out in duplicates.

human 5-HT1A receptor [2] = biological target: T2, human 5-HT1A receptor (Homo sapiens, UniProt P08908); experiment: 5-HT1A receptor radioligand binding ([3H]-8-OH-DPAT, CHO-K1 membranes); details: displacement of [3H]-8-OH-DPAT, mean ± SEM of three experiments, NC = not converged
T2 construct: purchased PerkinElmer; host or cells: CHO-K1
T2 sequence (P08908 1-422): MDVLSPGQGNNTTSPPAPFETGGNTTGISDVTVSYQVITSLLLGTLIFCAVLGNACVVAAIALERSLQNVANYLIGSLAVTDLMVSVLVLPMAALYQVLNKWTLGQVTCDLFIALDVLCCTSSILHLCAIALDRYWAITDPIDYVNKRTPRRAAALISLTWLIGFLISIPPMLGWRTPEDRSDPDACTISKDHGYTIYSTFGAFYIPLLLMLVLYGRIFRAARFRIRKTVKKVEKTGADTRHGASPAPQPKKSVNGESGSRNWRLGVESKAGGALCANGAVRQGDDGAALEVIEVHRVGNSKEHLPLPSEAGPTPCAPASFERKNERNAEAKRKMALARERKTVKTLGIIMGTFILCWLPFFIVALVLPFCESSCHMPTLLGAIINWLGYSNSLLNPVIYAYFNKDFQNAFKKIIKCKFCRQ
Protocol: as §1, §2

[3] = biological target: human dopamine transporter (Homo sapiens, UniProt Q01959); experiment: DAT binding assay ([3H]-WIN 35,428, CHO-K1 membranes); details: for Selectivity Ratio hDAT/hSERT: ratio of Ki values
Protocol: (§3) Ten-micromolar stock solutions of tested compounds were prepared in DMSO. […] Each compound was tested in a screening assay at final concentrations of 10 µM and 1 µM. Results were expressed as percent inhibition of radioligand binding. Reference compounds were tested in 8 concentrations from 10^−5 to 10^−12 M (final concentration).
Radioligand binding was performed using membranes from CHO-K1 cells stably transfected with the human dopamine transporter (PerkinElmer, Waltham, MA, USA). All assays were carried out in duplicates. […] The microplate was covered with sealing tape, mixed and incubated for 120 min at 4 °C. The reaction was terminated by rapid filtration through GF/C filter mate pre-soaked with 0.5% polyethyleneimine for 30 min. Ten rapid washes with 200 µL of 50 mM Tris buffer (4 °C, pH 7.4) were performed using the automated harvester system Harvester-96 MACH III FM (Tomtec, Hamden, CT, USA). […] Radioactivity was counted using a MicroBeta2 scintillation counter (PerkinElmer, Turku, Finland). Data were fitted to a one-site curve-fitting equation with Prism 5 (GraphPad Software), and Ki values were estimated using the Cheng–Prusoff equation.

[4] = biological target: human norepinephrine transporter (Homo sapiens, UniProt P23975); experiment: NET binding assay ([3H]-nisoxetine, MDCK membranes); details: at 1 µM
Protocol: We performed radioligand binding assays using membranes from CHO-K1 cells stably transfected with human DAT and membranes from MDCK cells stably transfected with human NET. This was accomplished by assessing the displacement of [^3H]-WIN35,428 and [^3H]-nisoxetine from cloned human DAT and NET, respectively.
as §3
Radioligand binding was performed using membranes from MDCK cells stably transfected with the human norepinephrine transporter (PerkinElmer, Waltham, MA, USA). All assays were carried out in duplicates. Measures of 50 µL of working solution of the tested compounds, 50 µL of [^3H]-nisoxetine (final concentration 4 nM) and 150 µL of diluted membranes (3 µg protein per well) prepared in assay buffer (50 mM Tris-HCl, pH 7.4, 120 mM NaCl; 5 mM KCl) were transferred to a polypropylene 96-well microplate using the 96-well pipetting station Rainin Liquidator (MettlerToledo, Beverly, MA, USA). […] The microplate was covered with sealing tape, mixed and incubated for 60 min at 4 °C. The reaction was terminated by rapid filtration through GF/C filter mate pre-soaked with 0.5% polyethyleneimine for 30 min. Ten rapid washes with 200 µL of 50 mM Tris buffer (4 °C, pH 7.4) were performed using the automated harvester system Harvester-96 MACH III FM (Tomtec, Hamden, CT, USA). […] Radioactivity was counted using a MicroBeta2 scintillation counter (PerkinElmer, Turku, Finland). Data were fitted to a one-site curve-fitting equation with Prism 5 (GraphPad Software), and Ki values were estimated using the Cheng–Prusoff equation.

α1-adrenoceptor = experiment: ADRA1 receptor binding assay ([3H]-prazosin, rat cortex); details: read-out: Ki ± SEM α1
[5] = biological target: T1, human serotonin transporter; details: previously described 1H-indole analogues; read-out: Ki ± SEM SERT; cited from earlier work
human 5-HT1A receptor [6] = biological target: T2, human 5-HT1A receptor; details: previously described 1H-indole analogues; read-out: Ki ± SEM 5-HT1A; cited from earlier work
[7] = displacement of [3H]-imipramine, HEK-293 membranes, mean ± SEM of three experiments, read-out: Ki ± SEM SERT

T1 sequence (P31645 whole entry): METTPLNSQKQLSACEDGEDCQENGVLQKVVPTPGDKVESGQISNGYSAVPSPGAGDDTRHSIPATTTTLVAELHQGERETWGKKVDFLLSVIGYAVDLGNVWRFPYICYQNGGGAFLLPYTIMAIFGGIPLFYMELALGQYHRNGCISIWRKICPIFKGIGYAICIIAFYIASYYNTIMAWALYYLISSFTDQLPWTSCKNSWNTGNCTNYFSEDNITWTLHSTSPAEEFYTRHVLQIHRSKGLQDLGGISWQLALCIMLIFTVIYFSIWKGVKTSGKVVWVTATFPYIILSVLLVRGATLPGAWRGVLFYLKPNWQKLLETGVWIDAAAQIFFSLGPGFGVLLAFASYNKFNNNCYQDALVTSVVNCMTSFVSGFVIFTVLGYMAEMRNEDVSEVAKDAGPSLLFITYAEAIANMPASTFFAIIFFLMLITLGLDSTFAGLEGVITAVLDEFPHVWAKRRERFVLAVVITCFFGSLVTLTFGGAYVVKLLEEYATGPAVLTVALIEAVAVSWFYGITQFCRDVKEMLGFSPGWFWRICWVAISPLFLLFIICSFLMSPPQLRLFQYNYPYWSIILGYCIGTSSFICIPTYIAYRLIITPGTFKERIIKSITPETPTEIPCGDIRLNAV
human dopamine transporter, sequence (Q01959 whole entry): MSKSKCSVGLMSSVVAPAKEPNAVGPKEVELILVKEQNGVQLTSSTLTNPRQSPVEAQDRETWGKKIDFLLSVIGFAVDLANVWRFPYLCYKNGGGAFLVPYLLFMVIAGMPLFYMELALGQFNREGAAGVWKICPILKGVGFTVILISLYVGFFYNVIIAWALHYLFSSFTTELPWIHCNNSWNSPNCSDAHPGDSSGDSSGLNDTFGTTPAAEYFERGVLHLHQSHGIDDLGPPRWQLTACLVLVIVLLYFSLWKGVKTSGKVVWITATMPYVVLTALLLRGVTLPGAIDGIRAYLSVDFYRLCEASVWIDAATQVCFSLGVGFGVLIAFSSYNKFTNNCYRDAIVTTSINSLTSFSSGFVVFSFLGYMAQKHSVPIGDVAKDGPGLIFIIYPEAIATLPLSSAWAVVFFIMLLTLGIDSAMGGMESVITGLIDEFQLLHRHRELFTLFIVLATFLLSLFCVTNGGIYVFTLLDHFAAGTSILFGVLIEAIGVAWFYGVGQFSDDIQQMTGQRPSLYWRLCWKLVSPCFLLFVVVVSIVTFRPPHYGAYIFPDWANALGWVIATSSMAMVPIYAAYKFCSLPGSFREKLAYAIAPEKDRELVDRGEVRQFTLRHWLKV
human norepinephrine transporter, sequence (P23975 whole entry): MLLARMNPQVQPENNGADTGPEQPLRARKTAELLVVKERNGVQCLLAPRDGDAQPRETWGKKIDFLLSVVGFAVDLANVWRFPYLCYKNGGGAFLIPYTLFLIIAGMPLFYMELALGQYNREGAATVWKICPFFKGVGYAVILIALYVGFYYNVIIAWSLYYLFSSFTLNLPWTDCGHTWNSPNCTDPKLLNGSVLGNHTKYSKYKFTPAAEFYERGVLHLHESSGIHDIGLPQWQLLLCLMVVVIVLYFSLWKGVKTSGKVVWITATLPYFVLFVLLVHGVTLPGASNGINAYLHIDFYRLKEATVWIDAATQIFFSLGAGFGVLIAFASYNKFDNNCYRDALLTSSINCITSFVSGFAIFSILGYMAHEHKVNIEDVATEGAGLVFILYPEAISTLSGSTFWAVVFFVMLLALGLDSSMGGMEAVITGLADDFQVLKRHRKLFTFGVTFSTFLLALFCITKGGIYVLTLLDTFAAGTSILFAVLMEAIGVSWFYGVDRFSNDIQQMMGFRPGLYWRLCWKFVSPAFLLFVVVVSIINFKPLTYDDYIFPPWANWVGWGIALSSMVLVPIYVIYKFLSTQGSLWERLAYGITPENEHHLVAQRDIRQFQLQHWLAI

Structure (SMILES)	melting point	Ki [5]	Ki (human 5-HT1A receptor [6])	also measured
O=C1CC(c2c[nH]c3ccccc23)C(=O)N1CCCCN1CC=C(c2c[nH]c3ncccc23)CC1 (stereo not drawn) (as salt: hydrochloride) [Compound 4, 1-(4-(4-(1H-Pyrrolo[2,3-b]pyridin-3-yl)-3,6-dihydropyridin-1(2H)-yl)butyl)-3-(1H-indol-3-yl)pyrrolidine-2,5-dione]	172 to 177 °C	–	–	–
O=C1CC(c2c[nH]c3ccccc23)C(=O)N1CCCN1CC=C(c2c[nH]c3ncccc23)CC1 (stereo not drawn) (as salt: hydrochloride) [Compound 5, 1-(3-(4-(1H-Pyrrolo[2,3-b]pyridin-3-yl)-3,6-dihydropyridin-1(2H)-yl)propyl)-3-(1H-indol-3-yl)pyrrolidine-2,5-dione]	97 to 102 °C	–	–	–
O=C1CC(c2c[nH]c3ccccc23)C(=O)N1CCN1CC=C(c2c[nH]c3ncccc23)CC1 (stereo not drawn) (as salt: hydrochloride) [Compound 6, 1-(2-(4-(1H-Pyrrolo[2,3-b]pyridin-3-yl)-3,6-dihydropyridin-1(2H)-yl)ethyl)-3-(1H-indol-3-yl)pyrrolidine-2,5-dione]	233 to 235 °C	–	–	–
COc1ccc2[nH]cc(C3CC(=O)N(CCCCN4CC=C(c5c[nH]c6ncccc56)CC4)C3=O)c2c1 (stereo not drawn) (as salt: hydrochloride) [Compound 7, 1-(4-(4-(1H-Pyrrolo[2,3-b]pyridin-3-yl)-3,6-dihydropyridin-1(2H)-yl)butyl)-3-(5-methoxy-1H-indol-3-yl)pyrrolidine-2,5-dione]	140 to 144 °C	–	–	–
COc1ccc2[nH]cc(C3CC(=O)N(CCCN4CC=C(c5c[nH]c6ncccc56)CC4)C3=O)c2c1 (stereo not drawn) (as salt: hydrochloride) [Compound 8, 1-(3-(4-(1H-Pyrrolo[2,3-b]pyridin-3-yl)-3,6-dihydropyridin-1(2H)-yl)propyl)-3-(5-methoxy-1H-indol-3-yl)pyrrolidine-2,5-dione]	111 to 115 °C	–	–	–
COc1ccc2[nH]cc(C3CC(=O)N(CCN4CC=C(c5c[nH]c6ncccc56)CC4)C3=O)c2c1 (stereo not drawn) (as salt: hydrochloride) [Compound 9, 1-(2-(4-(1H-Pyrrolo[2,3-b]pyridin-3-yl)-3,6-dihydropyridin-1(2H)-yl)ethyl)-3-(5-methoxy-1H-indol-3-yl)pyrrolidine-2,5-dione]	129 to 132 °C	–	–	–
O=C1CC(c2c[nH]c3ccc(F)cc23)C(=O)N1CCCCN1CC=C(c2c[nH]c3ncccc23)CC1 (stereo not drawn) (as salt: hydrochloride) [Compound 10, 1-(4-(4-(1H-Pyrrolo[2,3-b]pyridin-3-yl)-3,6-dihydropyridin-1(2H)-yl)butyl)-3-(5-fluoro-1H-indol-3-yl)pyrrolidine-2,5-dione]	98 to 102 °C	–	–	–
O=C1CC(c2c[nH]c3ccc(F)cc23)C(=O)N1CCCN1CC=C(c2c[nH]c3ncccc23)CC1 (stereo not drawn) (as salt: hydrochloride) [Compound 11, 1-(3-(4-(1H-Pyrrolo[2,3-b]pyridin-3-yl)-3,6-dihydropyridin-1(2H)-yl)propyl)-3-(5-fluoro-1H-indol-3-yl)pyrrolidine-2,5-dione]	147 to 150 °C	–	–	–
O=C1CC(c2c[nH]c3ccc(F)cc23)C(=O)N1CCN1CC=C(c2c[nH]c3ncccc23)CC1 (stereo not drawn) (as salt: hydrochloride) [Compound 12, 1-(2-(4-(1H-Pyrrolo[2,3-b]pyridin-3-yl)-3,6-dihydropyridin-1(2H)-yl)ethyl)-3-(5-fluoro-1H-indol-3-yl)pyrrolidine-2,5-dione]	250 to 252 °C	–	–	–
O=C1CC(c2c[nH]c3ccccc23)C(=O)N1CCCN1CC=C(c2c[nH]c3ncccc23)CC1 (stereo not drawn) [Compound 5, 1-(3-(4-(1H-Pyrrolo[2,3-b]pyridin-3-yl)-3,6-dihydropyridin-1(2H)-yl)propyl)-3-(1H-indol-3-yl)pyrrolidine-2,5-dione]	–	–	–	Ki [1]: 57.1 ± 3.2 nM; Ki (human 5-HT1A receptor [2]): 2450 ± 24 nM
O=C1CC(c2c[nH]c3ccccc23)C(=O)N1CCN1CC=C(c2c[nH]c3ncccc23)CC1 (stereo not drawn) [Compound 6, 1-(2-(4-(1H-Pyrrolo[2,3-b]pyridin-3-yl)-3,6-dihydropyridin-1(2H)-yl)ethyl)-3-(1H-indol-3-yl)pyrrolidine-2,5-dione]	–	–	–	Ki [3]: 916 ± 40.5 nM; Selectivity Ratio hDAT/hSERT [3]: 3.7; hNET screening procedure, displacement % [4]: 37% ^a; Ki [1, 7]: 245 ± 18 nM; Ki (α1-adrenoceptor): 367 ± 55.2 nM
COc1ccc2[nH]cc(C3CC(=O)N(CCCCN4CC=C(c5c[nH]c6ncccc56)CC4)C3=O)c2c1 (stereo not drawn) [Compound 7, 1-(4-(4-(1H-Pyrrolo[2,3-b]pyridin-3-yl)-3,6-dihydropyridin-1(2H)-yl)butyl)-3-(5-methoxy-1H-indol-3-yl)pyrrolidine-2,5-dione]	–	–	–	Ki [1, 7]: 58.4 ± 4 nM; Ki (human 5-HT1A receptor [2]): 824 ± 23.2 nM
COc1ccc2[nH]cc(C3CC(=O)N(CCN4CC=C(c5c[nH]c6ncccc56)CC4)C3=O)c2c1 (stereo not drawn) [Compound 9, 1-(2-(4-(1H-Pyrrolo[2,3-b]pyridin-3-yl)-3,6-dihydropyridin-1(2H)-yl)ethyl)-3-(5-methoxy-1H-indol-3-yl)pyrrolidine-2,5-dione]	–	–	–	Ki [3]: 335 ± 14.8 nM; Selectivity Ratio hDAT/hSERT [3]: 3.6; hNET screening procedure, displacement % [4]: 41% ^a; Ki [1, 7]: 92 ± 8 nM; Ki (α1-adrenoceptor): 319 ± 10.2 nM
O=C1CC(c2c[nH]c3ccc(F)cc23)C(=O)N1CCCCN1CC=C(c2c[nH]c3ncccc23)CC1 (stereo not drawn) [Compound 10, 1-(4-(4-(1H-Pyrrolo[2,3-b]pyridin-3-yl)-3,6-dihydropyridin-1(2H)-yl)butyl)-3-(5-fluoro-1H-indol-3-yl)pyrrolidine-2,5-dione]	–	–	–	Ki [1, 7]: 77.6 ± 2.5 nM; Ki (human 5-HT1A receptor [2]): 128 ± 12 nM
O=C1CC(c2c[nH]c3ccc(F)cc23)C(=O)N1CCN1CC=C(c2c[nH]c3ncccc23)CC1 (stereo not drawn) [Compound 12, 1-(2-(4-(1H-Pyrrolo[2,3-b]pyridin-3-yl)-3,6-dihydropyridin-1(2H)-yl)ethyl)-3-(5-fluoro-1H-indol-3-yl)pyrrolidine-2,5-dione]	–	–	–	Ki [3]: 229 ± 21.4 nM; Selectivity Ratio hDAT/hSERT [3]: 0.9; hNET screening procedure, displacement % [4]: 42% ^a; Ki [1, 7]: 252 ± 24 nM; Ki (α1-adrenoceptor): 456 ± 6 nM
O=C1CC(c2c[nH]c3ccccc23)C(=O)N1CCCCN1CC=C(c2c[nH]c3ccccc23)CC1 (stereo not drawn) [Compound 13]	–	11.3 ± 0.6 nM	12.5 ± 1.7 nM	–
O=C1CC(c2c[nH]c3ccccc23)C(=O)N1CCCN1CC=C(c2c[nH]c3ccccc23)CC1 (stereo not drawn) [Compound 14]	–	4 ± 0.1 nM	161 ± 17.5 nM	–
O=C1CC(c2c[nH]c3ccccc23)C(=O)N1CCN1CC=C(c2c[nH]c3ccccc23)CC1 (stereo not drawn) [Compound 15]	–	33.8 ± 3.2 nM	250 ± 6.8 nM	–
COc1ccc2[nH]cc(C3CC(=O)N(CCCCN4CC=C(c5c[nH]c6ccccc56)CC4)C3=O)c2c1 (stereo not drawn) [Compound 16]	–	2.6 ± 0.3 nM	30.4 ± 1.8 nM	–
COc1ccc2[nH]cc(C3CC(=O)N(CCCN4CC=C(c5c[nH]c6ccccc56)CC4)C3=O)c2c1 (stereo not drawn) [Compound 17]	–	782 ± 54 nM	221 ± 11.5 nM	–
COc1ccc2[nH]cc(C3CC(=O)N(CCN4CC=C(c5c[nH]c6ccccc56)CC4)C3=O)c2c1 (stereo not drawn) [Compound 18]	–	14.7 ± 1.5 nM	348 ± 12.1 nM	–
O=C1CC(c2c[nH]c3ccc(F)cc23)C(=O)N1CCCCN1CC=C(c2c[nH]c3ccccc23)CC1 (stereo not drawn) [Compound 19]	–	33.3 ± 2.9 nM	48.2 ± 2.9 nM	–
Cc1ccc(N(CC2=NCCN2)c2cccc(O)c2)cc1 [phentolamine, reference compound]	–	–	–	Ki (α1-adrenoceptor): 11 ± 0.7 nM
